Measured values taken from article PMC5642494 (Oncotarget, 2017).
Read-outs that look alike come from different tables or passages of the source.

Legend:
Type in all cases: cell-based, human
[1] = tested on: pRb at S807/811; assay: Immunoblotting of phospho-Rb in ZR-75-1, T-47D and MCF7 cells; conditions: MCF7, T-47D, ZR-75-1 cells; 24 hours; 0.027 µM to 20 µM
Experimental: Protein lysates were prepared from the cells and analyzed for the expression of various biomarkers by immunoblotting. The biomarkers included phosphor-Rb at serines 807/811,phosphorylation of serine 2 on the C-terminal repeat domain on RNA polymerase II (pCTD) and MCL1. Images of Western blots were cropped to denote the relevant band(s) for clarity. […] Ki-67 positive events were obtained by gating versus background signal.

[2] = tested on: MCF7 cells; assay: SA-β-gal immunofluorescence (senescence), MCF7
Experimental: (§1) After treatment, cells were fixed, washed with PBS, permeabilized and β-gal was detected using anti-β-galactosidase antibody; for multiplexed assays, TUNEL staining was carried out using Roche TUNEL reagents as indicated above. Nuclei were also stained with PI for total cell counting. Plates were read in an Acumen Explorer Ex3 (TTP Labtech) and raw data were analyzed with Cellista software. Outputs were expressed as percentages of each identified subpopulation 1) positive β-gal, and 2) total cell number. The percentages of β-gal positive cells, TUNEL positive cells, and cell numbers were plotted in Microsoft Excel.

[3] = tested on: H3K9me3; assay: Hypermethylation of histone H3 at lysine 9 (H3K9me3), EFM-19; conditions: 2 DT, n = 1, read-out: EC50 H3K9me3 levels
Experimental: Relative IC50/EC50 values were determined by curve fitting to a four parameter logistic equation: Y = bottom + ((top-bottom)/ (1+exp(HillSlope*(X – LnIC50)), where X is the natural log of dose/concentration, Y is response, decreasing as X increases, top and bottom are plateaus in the same units as Y, lnIC50 is the natural log of potency, in the same log units as X, and HillSlope measures the steepness of the curve. Data were plotted using GraphPad Prism.
BioResearch) where indicated; the dates of acquisition and in an Acumen Explorer Ex3 (TTP Labtech), raw data testing are listed in parentheses: ZR-75-1; T-47D; MDA- were analyzed with Cellista software and then further MB-468; HCC70; BT-549; BT-20; MDA-MB-231; MDA- normalized in Excel against the values obtained for cells MB-175-VII, HCC-1937; MDA-MB-415. treated with 2 µM BEZ235, or vehicle (0.2% v/v DMSO); data were graphed using GraphPad Prism®. Images were SA-β-galactosidase immunocytochemical labeling taken by fluorescent microscopy using a Leica DMiL. […]
SA-β-gal Cell samples were lysed after treatment with expression was determined using the Senescence Cells 100 µL lysis buffer and transferred to a 96-well plate. […]
(BSA) (Invitrogen #15260-037) for 1 hour at 25°C. EdU Samples were analyzed by LC─MS/MS under the detection was performed using the Click-iT High Content conditions described below. […]

[4] = tested on: MCF7 cells; assay: Multiplexed cell number, β-gal and TUNEL in MCF7; conditions: 0.125 µM or 0.5 µM, 1-5 DT
Experimental: The viable cell number was determined by PI staining, the % of β-gal positive cells was determined using an antibody to β-gal, and the % of Tunel positive cells was determined by the incorporation of labelled dUTP. The data are plotted as the mean (+/- SD) of 2 experiments for CDK4 and CDK6 inhibitor treatment, and the mean of 6 experiments (+/- SD) for untreated samples. The duration of treatment is plotted along the x-axis in doubling times (DT) for MCF7 cells.
as §1

- EC50 ([3]; EFM-19): 23 nM
- EC50 ([3]; Homo sapiens, EFM-19, EFM-19): 23.2 nM
Structure (SMILES): CCN1CCN(Cc2ccc(Nc3ncc(F)c(-c4cc(F)c5nc(C)n(C(C)C)c5c4)n3)nc2)CC1 [abemaciclib, Abemaciclib]
- levels of phosphorylated Rb (pRb) at S807/811 [1]: decrease in levels of phosphorylated Rb
- % β-gal Positive MCF7 Cells ([2]; 0.5 µM, 4 days): 16.15 ± 1.48%
- % β-gal Positive MCF7 Cells ([2]; 0.5 µM, 7 days): 16.25 ± 0.35%
- % β-gal Positive MCF7 Cells ([2]; 0.5 µM, 10 days): 19.7 ± 1.83%
- % β-gal Positive MCF7 Cells ([2]; 2 µM, 4 days): 42.45 ± 5.86%
- % β-gal Positive MCF7 Cells ([2]; 2 µM, 7 days): 55.4 ± 18.8%
- % β-gal Positive MCF7 Cells ([2]; 2 µM, 10 days): 30.85 ± 3.46%
- TUNEL staining [4]: increase in TUNEL staining was observed by 2DT
